Measured values from PubChem BioAssay (NCI).
Several values for one entry are separate records, joined by “and”; a condition that tells them apart may be missing. Equal entries are not always repeated.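 Where inhibition never reached the appropriate level, the endpoint shown equals the highest concentration tested. Otherwise, values were interpolated linearly from a five-concentration, 48-hour dose response in 96-well plates. GI50 = concentration required for 50% inhibition of growth. The concentration for full growth arrest is given as TGI.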

Legend:
Assay in all cases: NCI tumour cell line growth inhibition, 48 h
HCC-2998 colon = system: HCC-2998 colon
HOP-62 NSCLC = system: HOP-62 NSCLC
HS 578T breast = system: HS 578T breast
K-562 leukemia = system: K-562 leukemia
LOX IMVI melanoma = system: LOX IMVI melanoma
OVCAR-8 ovarian = system: OVCAR-8 ovarian
RPMI-8226 leukemia = system: RPMI-8226 leukemia
SK-MEL-2 melanoma = system: SK-MEL-2 melanoma
SNB-75 CNS = system: SNB-75 CNS
TK-10 renal = system: TK-10 renal

| Compound | TGI (HCC-2998 colon) | TGI (HOP-62 NSCLC) | TGI (HS 578T breast) | TGI (K-562 leukemia) | TGI (LOX IMVI melanoma) | TGI (OVCAR-8 ovarian) | TGI (RPMI-8226 leukemia) | TGI (SK-MEL-2 melanoma) | TGI (SNB-75 CNS) | TGI (TK-10 renal) | GI50 (HCC-2998 colon) | GI50 (HOP-62 NSCLC) | GI50 (HS 578T breast) | GI50 (K-562 leukemia) | GI50 (LOX IMVI melanoma) | GI50 (OVCAR-8 ovarian) | GI50 (RPMI-8226 leukemia) | GI50 (SK-MEL-2 melanoma) | GI50 (SNB-75 CNS) | GI50 (TK-10 renal) |
| --- | --- | --- | --- | --- | --- | --- | --- | --- | --- | --- | --- | --- | --- | --- | --- | --- | --- | --- | --- | --- |
| C=C(CN(C)C)C(=O)c1ccc(Oc2ccccc2)cc1 | 32.3 µM | 43.7 µM | 21.7 µM | 12.5 µM | 28.5 µM | 25.3 µM | > 21.8 µM | 19.6 µM | 35.5 µM | 14.5 µM | – | – | – | – | – | – | – | – | – | – |
| O=C(NCCCCCCNC(=O)OCc1ccc2c(Cl)cc(Cl)c(O)c2n1)OCc1ccc2c(Cl)cc(Cl)c(O)c2n1 | 3.22 µM | 4.22 µM | 5.68 µM | – | 1.1 µM | 2.62 µM | 1.68 µM | 2.99 µM | 2.08 µM | 2.45 µM | 1.68 µM | 1.7 µM | 1.46 µM | 0.381 µM | 0.325 µM | 0.677 µM | 0.311 µM | 1.45 µM | 0.567 µM | 1.18 µM |
| Clc1ccc2c(NCCNc3nc(N4CCCC4)nc4ccccc34)ccnc2c1 | 4.37 µM | 3.49 µM | 7 µM | 3.29 µM | 2.34 µM | 4.12 µM | 4.96 µM | 3.85 µM | 3 µM | 4.2 µM | 1.78 µM | 1.49 µM | 2.34 µM | 0.118 µM | 0.863 µM | 1.65 µM | 1.76 µM | 1.86 µM | 1.37 µM | 2.07 µM |
| Nc1nc(-c2cccs2)cs1 | > 100 µM | > 100 µM | > 100 µM | > 100 µM | > 100 µM | > 100 µM | > 100 µM | > 100 µM | > 100 µM | > 100 µM | – | – | – | – | – | – | – | – | – | – |
| C=C(C)[C@@H]1CC[C@]2(C(N)=O)CC[C@]3(C)[C@H](CC[C@@H]4[C@@]5(C)C/C(=C/c6cccnc6)[C@H](O)C(C)(C)[C@@H]5CC[C@]43C)[C@@H]12 | > 100 µM | > 100 µM | > 100 µM | > 100 µM | 37.1 µM | > 100 µM | 48.3 µM | 42.9 µM | > 100 µM | > 100 µM | 4.66 µM | 9.52 µM | 8.3 µM | 3.4 µM | 4.38 µM | 4.54 µM | 2.5 µM | 4.35 µM | 4.29 µM | 16.3 µM |
| Cn1c(=N)n[n+]([O-])c2ccccc21 | 39.1 µM | 4.29 µM and 4.98 µM | 6.77 µM and 18.5 µM | 10.8 µM and 5.45 µM | > 100 µM | 31.6 µM and > 55.3 µM | 5.19 µM and 7.67 µM | 8.87 µM and 12.5 µM | 3.56 µM and 8.45 µM | 70 µM and > 59.4 µM | – | – | 2.85 µM and 5.89 µM | – | – | – | 1.99 µM and 0.574 µM | – | – | – |
| CCN1CCN(c2ccc(Nc3ncc4ccc5ncn(C(C)C)c5c4n3)nc2)CC1 | 1.43 µM | 3.22 µM | 0.618 µM | – | 0.556 µM | 16.3 µM | 1.45 µM | 0.357 µM | 0.415 µM | 0.873 µM | 0.161 µM | 0.0923 µM | 0.155 µM | 0.132 µM | 0.116 µM | 0.311 µM | < 0.0324 µM | 0.144 µM | 0.14 µM | 0.0359 µM |
| Cc1nn(C)c2cc(N(C)c3ccnc(Nc4cccc(S(N)(=O)=O)c4)n3)ccc12 | > 25 µM | > 25 µM | > 25 µM | > 25 µM | > 25 µM | > 25 µM | > 25 µM | > 25 µM | > 23.7 µM | 24.4 µM | 15.7 µM | > 15 µM | 7.26 µM | 2.13 µM | 7.14 µM | 7.15 µM | 6.82 µM | 9.32 µM | 5.89 µM | 5.93 µM |
| O=S(=O)(Nc1ccccn1)c1ccc(N=Nc2ccc(O)c3ncccc23)cc1 | 18.4 µM | 8.88 µM | 8.86 µM | > 37.7 µM | 16 µM | – | 27.7 µM | 1.64 µM | 3.33 µM | 7.31 µM | 3.73 µM | 1.14 µM | 1.06 µM | 0.734 µM | 0.735 µM | 0.715 µM | 0.748 µM | 0.463 µM | 0.675 µM | 2.82 µM |
| C[C@@H]1OCC2(CCN(c3cnc(Sc4ccnc(N)c4Cl)c(N)n3)CC2)[C@@H]1N | > 100 µM | > 100 µM | > 100 µM | > 100 µM | > 100 µM | > 100 µM | > 100 µM | > 100 µM | > 100 µM | > 100 µM | > 100 µM | 14.2 µM | 61.8 µM | 0.397 µM | > 100 µM | > 89.5 µM | 37.6 µM | > 100 µM | 15.1 µM | 0.253 µM |
| C=C1C(=O)O[C@H]2[C@H]1CC/C(COC(=O)NCc1cc(OC)cc(OC)c1)=C\CC[C@@]1(C)O[C@@H]21 | 3.51 µM | 11.7 µM | 23 µM | 5.94 µM | 1.89 µM | 3.95 µM | 6.25 µM | 3.54 µM | 12.7 µM | 3.18 µM | 1.94 µM | 3.06 µM | 4.12 µM | 1.56 µM | 0.549 µM | 1.6 µM | 1.8 µM | 1.66 µM | 1.99 µM | 1.66 µM |
| COc1cc2c3c(n(CCCN4CCCC(O)C4)c(=O)c2cc1OC)-c1cc2c(cc1C3=O)OCO2 (centres undefined) | 1.05 µM | 0.0746 µM | 2.11 µM | 6.87 µM | 0.849 µM | 1.45 µM | 0.447 µM | 28.4 µM | 1.57 µM | 14.2 µM | 0.0763 µM | 0.0194 µM | 0.874 µM | 0.0881 µM | 0.0213 µM | 0.587 µM | 0.0961 µM | 2.68 µM | 0.546 µM | 6.38 µM |
